Laboratory results as given in patent US12570612B2, “Substituted nitrogen heterocyclic compound and anesthetic effect thereof” (priority 2019, dated 2026).
Read-outs that look alike come from different tables or passages of the source.

Key:
SD rats [1] = details: for After the infusion is stopped: Righting reflex recovery time / Recovery time after stopping infusion: after 1 hour continuous infusion at 2 times the MIR; for After the infusion is stopped: Righting reflex recovery time / Recovery time after stopping infusion / Sedation onset time: SD rats; for Sedation onset time: continuous tail vein infusion at 2 times the MIR
Method: (§1) Experimental Methods: Adult male SD rats with body weight ranging from 250 g to 350 g were selected for continuous infusion test.
(§2) Evaluation indexes: the time from the beginning of continuous infusion to the […] of sedation in rats; the time from the cessation of infusion to the restoration of the forepaw turning reflex after 1 hour of continuous infusion; the time from the cessation of infusion to the complete restoration of rats after 1 hour of continuous infusion.

Sprague-Dawley rats [2] = assay: animal or person; assay type: in vivo; details: rats; for ED50: LORR, up and down method, tail vein, class symbols
Source text: (§3) Evaluating indicator: The end point of anesthesia: LORR was used as the end point of anesthesia; General anesthesia effect: the disappearance of forepaw righting reflex in rats lasting for 30 seconds is taken as the index of general anesthesia effect; Anesthesia recovery index: the recovery of rat forepaw righting reflex was used as the index of anesthesia recovery.

Sprague-Dawley rats [3] = assay: Pharmacological effect and adverse reactions under the equivalent dose (2ED50), Group C compounds; assay type: in vivo; details: for Righting reflex duration / Sedation duration / Onset time: 2ED50, tail vein, rats, n=8; for Onset time: unit s; for Adverse reaction: Convulsions / Adverse reaction: Cough, broken-winded / Adverse reaction: Euphoria / Adverse reaction: Red urine / Adverse reaction: Slower breathing, Tetany convulsion / Adverse reaction: Systemic stiffness, Convulsions, Opisthotonus / Adverse reaction: Tongue stretching / Adverse reaction: Tremor / Adverse reaction: the four limbs rigidity: equivalent dose (2ED50), number of rats of n = 8
Source text: (§4) Evaluation index: onset time: from the completion of drug injection to the disappearance of forepaw righting reflex in rats; Duration of anesthesia: the time from the disappearance of rat forepaw righting reflex to the recovery of rat forepaw righting reflex; Recovery time of anesthesia: the time from the […] to complete recovery;

adrenal cortex function = assay: Adrenocortical function in rats: corticosterone after dexamethasone and ACTH, Group C compounds; details: for Give ACTH 30min later(S2) corticosterone concentration: drug at 2ED50, 30 min after ACTH 25 ug/kg; for Baseline(S1) corticosterone concentration: two hours after dexamethasone 0.5 mg/kg, before drug
Method: Instruments and equipment: multi-function ion meter (METTLER TOLEDO, models: SevenMulti), pipetting gun (Eppendorf, specifications: 1000 ul, 200 ul, 100 ul, 10 ul), electronic balance (model: ME215S, manufacturers: Sartorius, Germany), the timer. Experimental Method: Adult male Sprague-Dawley rats (250-300 g) were selected for the experiment (n=8), all the experiment were started in the morning. Place indwelling needles in tail vein of rats and inject dexamethasone (0.5 mg/kg). The first time of blood collection (S1) is in two hours later, and give dexamethasone (0.2 mg/kg). […] All the drugs were administered in a volume of 0.6 ml and at a rate of 0.1 ml/s. 15 min later, exogenous ACTH (25 ug/kg) was injected. Another blood sample was collected after 30 min(S2). The blood samples were left standing at room temperature for 30-60 min, followed by centrifugation at 3500 rpm for 10 min. The supernatant was taken and centrifuged again at 15000 rpm for 5 min before being frozen and stored in a −20° C. refrigerator.
Evaluation indexes: The concentration of the corticosterone in the supernatant of rats before and after given drugs.

Sprague-Dawley rats [4] = assay type: in vivo; details: tail vein
Sprague-Dawley rats [5] = assay: animal or person; assay type: in vivo; details: rats; for ED50: Rattus norvegicus, LORR, up and down method, tail vein, class symbols, read-out: ED50
Source text: as §3, with “the disappearance of forepaw righting reflex (lorr)” for “LORR”

Sprague-Dawley rats [6] = assay type: in vivo; details: tail vein; remark: listed apart in the source
SD rats [7] = details: for After the infusion is stopped: Righting reflex recovery time / Recovery time after stopping infusion: after 1 hour continuous infusion at 2 times the MIR; for After the infusion is stopped: Righting reflex recovery time / Recovery time after stopping infusion / Sedation onset time: SD rats; for Types and incidence of adverse reactions: Red urine / Types and incidence of adverse reactions: Tongue stretching / Types and incidence of adverse reactions: Tremor: continuous infusion 2 x MIR 1 hour, rats affected/rats; for Sedation onset time: continuous tail vein infusion at 2 times the MIR
Method: as §1, §2

Sprague-Dawley rats [8] = assay: Pharmacological effect and adverse reactions under the equivalent dose (2ED50), Group D compounds; assay type: in vivo; details: for Righting reflex duration / Sedation duration / Onset time: 2ED50, tail vein, rats, n=8; for Adverse reaction: Convulsions / Adverse reaction: Cough, broken-winded / Adverse reaction: Euphoria / Adverse reaction: Four limbs rigidity / Adverse reaction: Red urine / Adverse reaction: Slower breathing, Tetany convulsion / Adverse reaction: Systemic stiffness, Convulsions, Opisthotonus / Adverse reaction: Tongue stretching / Adverse reaction: Tremor: equivalent dose (2 × ED50), number of rats of n = 8
Source text: as §4

[9] = continuous infusion 2 x MIR 1 hour, rats affected/rats

CC#CCOCC(=O)c1cncn1[C@H](C)c1ccccc1 [Compound C27]
After the infusion is stopped: Righting reflex recovery time (SD rats [1]): 12 to 16 min | Recovery time after stopping infusion (SD rats [1]): 15 to 20 min | Types and incidence of adverse reactions: Red urine (SD rats [1]; [9]): 6/6 | Types and incidence of adverse reactions: Tremor (SD rats [1]; [9]): 5/6 | Sedation onset time (SD rats [1]): <5 min | ED50 (Sprague-Dawley rats [2]): ++ (++ means that the measured ED50 is in the range of 0.50-1.00 mg/kg (excluding 0.50 mg/kg, including 1.00 mg/kg)) | Approximate therapeutic index (Sprague-Dawley rats [2]): >16.6 | Righting reflex duration (Sprague-Dawley rats [3]): 1.48 ± 0.14 min | Sedation duration (Sprague-Dawley rats [3]): 4.39 ± 0.94 min | Onset time (Sprague-Dawley rats [3]): <30 s | Adverse reaction: Convulsions (Sprague-Dawley rats [3]): 0 | Adverse reaction: Cough, broken-winded (Sprague-Dawley rats [3]): 0 | Adverse reaction: Euphoria (Sprague-Dawley rats [3]): 0 | Adverse reaction: Red urine (Sprague-Dawley rats [3]): 8 | Adverse reaction: Slower breathing, Tetany convulsion (Sprague-Dawley rats [3]): 0 | Adverse reaction: Systemic stiffness, Convulsions, Opisthotonus (Sprague-Dawley rats [3]): 1 | Adverse reaction: Tongue stretching (Sprague-Dawley rats [3]): 2 | Adverse reaction: Tremor (Sprague-Dawley rats [3]): 0 | Adverse reaction: the four limbs rigidity (Sprague-Dawley rats [3]): 0 | Give ACTH 30min later(S2) corticosterone concentration (adrenal cortex function): 253.11 ± 34.56 | Baseline(S1) corticosterone concentration (adrenal cortex function): 180.33 ± 46.70 | Minimal lethal dose (Sprague-Dawley rats [4]): >13.6 mg/kg

COC(OC)(OC)C(=O)c1ccnn1[C@H](C)c1ccccc1 [Compound D1]
ED50 (Sprague-Dawley rats [5]): 0.5 to 1 mg/kg | Approximate therapeutic index (Sprague-Dawley rats [5]): >8.4 | Minimal lethal dose (Sprague-Dawley rats [6]): >11.2 mg/kg | After the infusion is stopped: Righting reflex recovery time (SD rats [7]): 18 to 24 min | Recovery time after stopping infusion (SD rats [7]): 35 to 45 min | Types and incidence of adverse reactions: Red urine (SD rats [7]): 6/6 | Types and incidence of adverse reactions: Tongue stretching (SD rats [7]): Tongue stretching(2/6) | Types and incidence of adverse reactions: Tremor (SD rats [7]): 2/6 | Sedation onset time (SD rats [7]): <5 min | Righting reflex duration (Sprague-Dawley rats [8]): 1.18 ± 0.43 min | Sedation duration (Sprague-Dawley rats [8]): 7.96 ± 2.14 min | Onset time (Sprague-Dawley rats [8]; unit min): <1 min | Adverse reaction: Convulsions (Sprague-Dawley rats [8]): 0 | Adverse reaction: Cough, broken-winded (Sprague-Dawley rats [8]): 0 | Adverse reaction: Euphoria (Sprague-Dawley rats [8]): 0 | Adverse reaction: Four limbs rigidity (Sprague-Dawley rats [8]): 0 | Adverse reaction: Red urine (Sprague-Dawley rats [8]): 8 | Adverse reaction: Slower breathing, Tetany convulsion (Sprague-Dawley rats [8]): 0 | Adverse reaction: Systemic stiffness, Convulsions, Opisthotonus (Sprague-Dawley rats [8]): 0 | Adverse reaction: Tongue stretching (Sprague-Dawley rats [8]): 1 | Adverse reaction: Tremor (Sprague-Dawley rats [8]): 0

COC(OC)(OC)C(=O)c1cncn1[C@H](C)c1ccccc1 [Compound D77]
ED50 (Sprague-Dawley rats [5]): 0.04 to 0.5 mg/kg | Approximate therapeutic index (Sprague-Dawley rats [5]): >21.0 | Minimal lethal dose (Sprague-Dawley rats [6]): >1.4 mg/kg | After the infusion is stopped: Righting reflex recovery time (SD rats [7]): 12 to 16 min | Recovery time after stopping infusion (SD rats [7]): 20 to 30 min | Types and incidence of adverse reactions: Red urine (SD rats [7]): Red urine(6/6), Tongue | Types and incidence of adverse reactions: Tongue stretching (SD rats [7]): stretching(3/6), Tremor(3/6) | Types and incidence of adverse reactions: Tremor (SD rats [7]): stretching(3/6), Tremor(3/6) | Sedation onset time (SD rats [7]): <5 min | Righting reflex duration (Sprague-Dawley rats [8]): 1.43 ± 0.22 min | Sedation duration (Sprague-Dawley rats [8]): 3.68 ± 0.56 min | Onset time (Sprague-Dawley rats [8]; unit s): <0.5 min | Adverse reaction: Convulsions (Sprague-Dawley rats [8]): 0 | Adverse reaction: Cough, broken-winded (Sprague-Dawley rats [8]): 0 | Adverse reaction: Euphoria (Sprague-Dawley rats [8]): 0 | Adverse reaction: Four limbs rigidity (Sprague-Dawley rats [8]): 0 | Adverse reaction: Red urine (Sprague-Dawley rats [8]): 8 | Adverse reaction: Slower breathing, Tetany convulsion (Sprague-Dawley rats [8]): 0 | Adverse reaction: Systemic stiffness, Convulsions, Opisthotonus (Sprague-Dawley rats [8]): 8 | Adverse reaction: Tongue stretching (Sprague-Dawley rats [8]): 1 | Adverse reaction: Tremor (Sprague-Dawley rats [8]): 0

COC(OC)(OC)C(=O)c1cc(F)nn1[C@H](C)c1ccccc1 [Compound D17]
ED50 (Sprague-Dawley rats [5]): 0.5 to 1 mg/kg | Approximate therapeutic index (Sprague-Dawley rats [5]): >4.5 | Minimal lethal dose (Sprague-Dawley rats [6]): >11.9 mg/kg | After the infusion is stopped: Righting reflex recovery time (SD rats [7]): 15 to 22 min | Recovery time after stopping infusion (SD rats [7]): 25 to 35 min | Types and incidence of adverse reactions: Red urine (SD rats [7]): 6/6 | Types and incidence of adverse reactions: Tremor (SD rats [7]): 1/6 | Sedation onset time (SD rats [7]): <5 min | Righting reflex duration (Sprague-Dawley rats [8]): 0.86 ± 0.23 min | Sedation duration (Sprague-Dawley rats [8]): 5.48 ± 0.50 min | Onset time (Sprague-Dawley rats [8]; unit min): <1 min | Adverse reaction: Convulsions (Sprague-Dawley rats [8]): 0 | Adverse reaction: Cough, broken-winded (Sprague-Dawley rats [8]): 0 | Adverse reaction: Euphoria (Sprague-Dawley rats [8]): 0 | Adverse reaction: Four limbs rigidity (Sprague-Dawley rats [8]): 1 | Adverse reaction: Red urine (Sprague-Dawley rats [8]): 8 | Adverse reaction: Slower breathing, Tetany convulsion (Sprague-Dawley rats [8]): 0 | Adverse reaction: Systemic stiffness, Convulsions, Opisthotonus (Sprague-Dawley rats [8]): 0 | Adverse reaction: Tongue stretching (Sprague-Dawley rats [8]): 0 | Adverse reaction: Tremor (Sprague-Dawley rats [8]): 0

CCOCC(=O)c1ccnn1[C@H](C)c1ccccc1 [Compound C2]
After the infusion is stopped: Righting reflex recovery time (SD rats [1]): 10 to 15 min | Recovery time after stopping infusion (SD rats [1]): 20 to 30 min | Types and incidence of adverse reactions: Red urine (SD rats [1]; [9]): 6/6 | Types and incidence of adverse reactions: Tongue stretching (SD rats [1]; [9]): Tongue stretching(4/6) | Types and incidence of adverse reactions: Tremor (SD rats [1]; [9]): 3/6 | Sedation onset time (SD rats [1]): <5 min | ED50 (Sprague-Dawley rats [2]): ++++ (++++ indicates that the measured ED50 is in the range of 2.00-10.00 mg/kg (excluding 2.00 mg/kg, including 6.00 mg/kg)) | Approximate therapeutic index (Sprague-Dawley rats [2]): >2.5 | Righting reflex duration (Sprague-Dawley rats [3]): 1.78 ± 0.53 min | Sedation duration (Sprague-Dawley rats [3]): 5.38 ± 0.78 min | Onset time (Sprague-Dawley rats [3]): <30 s | Adverse reaction: Convulsions (Sprague-Dawley rats [3]): 0 | Adverse reaction: Cough, broken-winded (Sprague-Dawley rats [3]): 0 | Adverse reaction: Euphoria (Sprague-Dawley rats [3]): 0 | Adverse reaction: Red urine (Sprague-Dawley rats [3]): 8 | Adverse reaction: Slower breathing, Tetany convulsion (Sprague-Dawley rats [3]): 0 | Adverse reaction: Systemic stiffness, Convulsions, Opisthotonus (Sprague-Dawley rats [3]): 0 | Adverse reaction: Tongue stretching (Sprague-Dawley rats [3]): 2 | Adverse reaction: Tremor (Sprague-Dawley rats [3]): 0 | Adverse reaction: the four limbs rigidity (Sprague-Dawley rats [3]): 0 | Give ACTH 30min later(S2) corticosterone concentration (adrenal cortex function): 242.12 ± 46.22 | Baseline(S1) corticosterone concentration (adrenal cortex function): 163.22 ± 35.11 | Minimal lethal dose (Sprague-Dawley rats [4]): >12.4 mg/kg

C#CCOCC(=O)c1cc(F)nn1[C@H](C)c1ccccc1 [Compound C15]
After the infusion is stopped: Righting reflex recovery time (SD rats [1]): 16 to 18 min | Recovery time after stopping infusion (SD rats [1]): 30 to 36 min | Types and incidence of adverse reactions: Red urine (SD rats [1]; [9]): 6/6 | Types and incidence of adverse reactions: Tremor (SD rats [1]; [9]): 1/6 | Sedation onset time (SD rats [1]): <5 min | ED50 (Sprague-Dawley rats [2]): ++++ (++++ indicates that the measured ED50 is in the range of 2.00-10.00 mg/kg (excluding 2.00 mg/kg, including 6.00 mg/kg)) | Approximate therapeutic index (Sprague-Dawley rats [2]): >3.4 | Righting reflex duration (Sprague-Dawley rats [3]): 2.13 ± 0.59 min | Sedation duration (Sprague-Dawley rats [3]): 5.3 ± 0.92 min | Onset time (Sprague-Dawley rats [3]): <30 s | Adverse reaction: Convulsions (Sprague-Dawley rats [3]): 0 | Adverse reaction: Cough, broken-winded (Sprague-Dawley rats [3]): 0 | Adverse reaction: Euphoria (Sprague-Dawley rats [3]): 0 | Adverse reaction: Red urine (Sprague-Dawley rats [3]): 8 | Adverse reaction: Slower breathing, Tetany convulsion (Sprague-Dawley rats [3]): 0 | Adverse reaction: Systemic stiffness, Convulsions, Opisthotonus (Sprague-Dawley rats [3]): 0 | Adverse reaction: Tongue stretching (Sprague-Dawley rats [3]): 0 | Adverse reaction: Tremor (Sprague-Dawley rats [3]): 1 | Adverse reaction: the four limbs rigidity (Sprague-Dawley rats [3]): 0 | Give ACTH 30min later(S2) corticosterone concentration (adrenal cortex function): 267.99 ± 33.20 | Baseline(S1) corticosterone concentration (adrenal cortex function): 145.90 ± 54.33 | Minimal lethal dose (Sprague-Dawley rats [4]): >16.8 mg/kg
